# Test results reported in patent US8741940B2, “Microbicidal composition” (Rohm and Haas Company, priority 2005, dated 2014).
# Several values for one entry are separate records, joined by “and”; a condition that tells them apart may be missing. Equal entries are not always repeated. Where two headings read alike, the source gives them in different places.
# Assays:
# Assay type in all cases: cell-based
# Settings in all cases: for Qa (concentration of MBIT producing the end point, MIC): alone where Qb = 0, otherwise in the mixture
# [1] = test system: Escherichia coli (E. coli—ATCC #8739); assay: Synergy test, microtiter plate high resolution MIC assay, bacterium in M9GY medium; parameters: Qa (First Component A) / Qb (Second Component B): unit: ppm
# Summary of the method: (§1)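 High-resolution microtiter MICs spanned 2 to 10,000 ppm active, tested alongside varying BBIT or MBIT as component A. E. coli was run at ~5×10^6/mL in M9GY (0.2% glucose, 0.1% yeast extract) at 30 °C; C. albicans and A. niger at 5×10^5/mL in PDB. Synergy index is Qa/QA + Qb/QB, with >1 indicating antagonism.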
# [2] = test system: Candida albicans (C. albicans—ATCC 10231); assay: Synergy test, microtiter plate high resolution MIC assay, yeast in PDB medium; parameters: Qb (Second Component B) / Qa (First Component A): unit: ppm
# Summary of the method: as §1
# [3] = test system: Aspergillus niger (A. niger—ATCC 16404); assay: Synergy test, microtiter plate high resolution MIC assay, mold in PDB medium; parameters: Qb (Second Component B) / Qa (First Component A): unit: ppm
# Summary of the method: as §1
# [4] = A=MBIT, B=2-bromo-2-nitro-propane-1,3-diol (BNPD), E. coli 8739 - M9GY, 24 hours
# [5] = A=MBIT, B=BBIT, E. coli 8739 - M9GY, 24 hours
# [6] = A=MBIT, B=Benzalkonium chloride (Hyamine 3500), E. coli 8739 - M9GY, 24 hours
# [7] = A=MBIT, B=Benzisothiazolinone (BIT), E. coli 8739 - M9GY, 24 hours
# [8] = A=MBIT, B=Benzyl alcohol, E. coli 8739 - M9GY, 24 hours
# [9] = A=MBIT, B=Caprylyl glycol, E. coli 8739 - M9GY, 24 hours
# [10] = A=MBIT, B=Chlorphenesin, E. coli 8739 - M9GY, 24 hours
# [11] = A=MBIT, B=DMDM Hydantoin (DMDMH), E. coli 8739 - M9GY, 24 hours
# [12] = A=MBIT, B=dithio-2,2′-bis(N-methylbenzamide) (DTBMA), E. coli 8739 - M9GY, 24 hours
# [13] = A=MBIT, B=2-bromo-2-nitro-propane-1,3-diol (BNPD), C. albicans 10231 - PDB, 24 hours
# [14] = A=MBIT, B=BBIT, C. albicans 10231 - PDB, 48 hours
# [15] = A=MBIT, B=Benzalkonium chloride (Hyamine 3500), C. albicans 10231 - PDB, 24 hours
# [16] = A=MBIT, B=Benzisothiazolinone (BIT), C. albicans 10231 - PDB, 48 hours
# [17] = A=MBIT, B=Benzyl alcohol, C. albicans 10231 - PDB, 48 hours
# [18] = A=MBIT, B=Caprylyl glycol, C. albicans 10231 - PDB, 24 hours
# [19] = A=MBIT, B=Chlorphenesin, C. albicans 10231 - PDB, 72 hours
# [20] = A=MBIT, B=DMDM Hydantoin (DMDMH), C. albicans 10231 - PDB, 24 hours
# [21] = A=MBIT, B=dithio-2,2′-bis(N-methylbenzamide) (DTBMA), C. albicans 10231 - PDB, 24 hours
# [22] = C. albicans 10231, PDB, 24 hours
# [23] = C. albicans 10231, PDB, 48 hours
# [24] = C. albicans 10231, PDB, 72 hours
# [25] = A=MBIT, B=2-bromo-2-nitro-propane-1,3-diol (BNPD), A. niger 16404 - PDB, 4 days
# [26] = A=MBIT, B=BBIT, A. niger 16404 - PDB, 4 days
# [27] = A=MBIT, B=Benzalkonium chloride (Hyamine 3500), A. niger 16404 - PDB, 4 days
# [28] = A=MBIT, B=Benzisothiazolinone (BIT), A. niger 16404 - PDB, 7 days
# [29] = A=MBIT, B=Benzyl alcohol, A. niger 16404 - PDB, 4 days
# [30] = A=MBIT, B=Caprylyl glycol, A. niger 16404 - PDB, 4 days
# [31] = A=MBIT, B=Chlorphenesin, A. niger 16404 - PDB, 3 days
# [32] = A=MBIT, B=DMDM Hydantoin (DMDMH), A. niger 16404 - PDB, 3 days
# [33] = A=MBIT, B=dithio-2,2′-bis(N-methylbenzamide) (DTBMA), A. niger 16404 - PDB, 3 days
smiles,measurement,setting,value
"Cn1sc2ccccc2c1=O [MBIT, N-methyl-1,2-benzisothiazolin-3-one]",Qa (First Component A),[1],10 and 7.5
same,Qa (concentration of First Component A = MBIT at the end point),[1],10
same,SI (synergy index),[1],1.00
same,Qa (First Component A),[1]; [4],10
same,SI (synergy index),[1]; [4],1.00
same,Qa (First Component A),[1]; [5],10
same,SI (synergy index),[1]; [5],1.00
same,Qa (First Component A),[1]; [6],100
same,SI (synergy index),[1]; [6],1.00
same,Qa (First Component A),[1]; [7],10
same,SI (synergy index),[1]; [7],1.00
same,Qa (First Component A),[1]; [8],10
same,SI (synergy index),[1]; [8],1.00
same,Qa (First Component A),[1]; [9],10
same,SI (synergy index),[1]; [9],1.00
same,Qa (First Component A),[1]; [10],15
same,SI (synergy index),[1]; [10],1.00
same,Qa (First Component A),[1]; [11],10
same,SI (synergy index),[1]; [11],1.00
same,Qa (First Component A),[1]; [12],15
same,SI (synergy index),[1]; [12],1.00
same,SI (synergy index),"[1]; E. coli 8739, M9GY, 24 hours",1.00
same,"Qa (concentration of MBIT producing the end point, MIC)","[1]; E. coli 8739, M9GY, 24 hours",10 ppm and 15 ppm
same,SI (synergy index),"[1]; E. coli 8739, M9GY, 48 hours",1.00
same,"Qa (concentration of MBIT producing the end point, MIC)","[1]; E. coli 8739, M9GY, 48 hours",20 ppm and 15 ppm
same,SI (synergy index),"[1]; E. coli 8739, M9GY, 72 hours",1.00
same,"Qa (concentration of MBIT producing the end point, MIC)","[1]; E. coli 8739, M9GY, 72 hours",15 ppm
same,Qa (First Component A),[2],8 and 10
same,Qa (concentration of First Component A = MBIT at the end point),[2],7.5
same,SI (synergy index),[2],1.00
same,Qa (First Component A),[2]; [13],8
same,SI (synergy index),[2]; [13],1.00
same,Qa (First Component A),[2]; [14],10
same,SI (synergy index),[2]; [14],1.00
same,Qa (First Component A),[2]; [15],8
same,SI (synergy index),[2]; [15],1.00
same,Qa (First Component A),[2]; [16],10
same,SI (synergy index),[2]; [16],1.00
same,Qa (First Component A),[2]; [17],10
same,SI (synergy index),[2]; [17],1.00
same,Qa (First Component A),[2]; [18],10
same,SI (synergy index),[2]; [18],1.00
same,Qa (First Component A),[2]; [19],10
same,SI (synergy index),[2]; [19],1.00
same,Qa (First Component A),[2]; [20],7.5
same,SI (synergy index),[2]; [20],1.00
same,Qa (First Component A),[2]; [21],10
same,SI (synergy index),[2]; [21],1.00
same,SI (synergy index),[2]; [22],1.00
same,"Qa (concentration of MBIT producing the end point, MIC)",[2]; [22],7.5 ppm and 10 ppm and 15 ppm and 8 ppm
same,SI (synergy index),[2]; [23],1.00
same,"Qa (concentration of MBIT producing the end point, MIC)",[2]; [23],7.5 ppm and 10 ppm
same,SI (synergy index),[2]; [24],1.00
same,"Qa (concentration of MBIT producing the end point, MIC)",[2]; [24],15 ppm
same,Qa (First Component A),[3],30 and 40
same,Qa (concentration of First Component A = MBIT at the end point),[3],40
same,SI (synergy index),[3],1.00
same,SI (synergy index),"[3]; A. niger 16404, PDB, 3 days",1.00
same,"Qa (concentration of MBIT producing the end point, MIC)","[3]; A. niger 16404, PDB, 3 days",40 ppm and 20 ppm and 30 ppm
same,SI (synergy index),"[3]; A. niger 16404, PDB, 4 days",1.00
same,"Qa (concentration of MBIT producing the end point, MIC)","[3]; A. niger 16404, PDB, 4 days",30 ppm and 40 ppm
same,SI (synergy index),"[3]; A. niger 16404, PDB, 7 days",1.00
same,"Qa (concentration of MBIT producing the end point, MIC)","[3]; A. niger 16404, PDB, 7 days",50 ppm and 60 ppm
same,Qa (First Component A),[3]; [25],30
same,SI (synergy index),[3]; [25],1.00
same,Qa (First Component A),[3]; [26],40
same,SI (synergy index),[3]; [26],1.00
same,Qa (First Component A),[3]; [27],30
same,SI (synergy index),[3]; [27],1.00
same,Qa (First Component A),[3]; [28],50
same,SI (synergy index),[3]; [28],1.00
same,Qa (First Component A),[3]; [29],50
same,SI (synergy index),[3]; [29],1.00
same,Qa (First Component A),[3]; [30],20
same,SI (synergy index),[3]; [30],1.00
same,Qa (First Component A),[3]; [31],20
same,SI (synergy index),[3]; [31],1.00
same,Qa (First Component A),[3]; [32],40
same,SI (synergy index),[3]; [32],1.00
same,Qa (First Component A),[3]; [33],30
same,SI (synergy index),[3]; [33],1.00
